Converted amounts (≈) assume the structure as drawn. Read-outs that look alike come from different tables or passages of the source.
Columns and labels:
staphylococci = experiment: Minimum inhibitory concentration, microdilution broth method, staphylococci; assay type: cell-based; conditions: Staphylococcus aureus, Mueller-Hinton broth, 18-22 hours at 35° C.
Description: (§1) Evaluation of the Minimum Inhibitory Concentration of Test Compounds Against A Variety of Bacterial Strains
(§2) In this evaluation the minimal inhibitory concentration (MIC) of test compounds against Gram positive and Gram negative bacteria is performed using the microdilution broth method as recommended by the National Committee for Clinical Laboratory Standards (Approved Standards M7-A5 2000). Mueller-Hinton broth is used for the enterobacteriaceae, staphylococci and enterococci. Streptococci are also tested in Mueller-Hinton broth supplemented with 5% horse blood (LHB). Test organisms include recent clinical isolates that are resistant to methicillin, penicillin and/or vancomycin. […].

Streptococci = experiment: Minimum inhibitory concentration, microdilution broth method, streptococci; assay type: cell-based; conditions: S. pneumo GC 1894; Mueller-Hinton broth with 5% horse blood, 18-22 hours at 35° C.
Description: as §1, §2

[1] = molecular target: E. coli UDP-N-acetylglucosamine enolpyruvoyl transferase, MurA (Escherichia coli, UniProt P0A749); experiment: biochemical; conditions: (E) E. coli enzyme
Chain of E. coli UDP-N-acetylglucosamine enolpyruvoyl transferase, MurA (P0A749 whole entry): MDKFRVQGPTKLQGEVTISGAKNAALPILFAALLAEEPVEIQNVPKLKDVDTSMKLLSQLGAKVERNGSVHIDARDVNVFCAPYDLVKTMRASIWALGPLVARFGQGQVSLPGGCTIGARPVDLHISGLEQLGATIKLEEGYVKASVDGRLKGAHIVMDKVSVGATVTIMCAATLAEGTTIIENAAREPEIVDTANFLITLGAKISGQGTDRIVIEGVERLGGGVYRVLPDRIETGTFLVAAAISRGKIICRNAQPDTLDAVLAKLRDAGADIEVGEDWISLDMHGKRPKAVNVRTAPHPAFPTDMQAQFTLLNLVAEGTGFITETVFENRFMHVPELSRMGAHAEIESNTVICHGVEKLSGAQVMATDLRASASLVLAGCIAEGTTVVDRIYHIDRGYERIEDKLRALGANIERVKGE
Description: Evaluation of the Inhibitory Activity of Test Compounds Against Enzymes which Catalyze Bacterial Cell Wall Biosynthesis
S. aureus and E. coli UDP-N-acetylglucosamine enolpyruvoyl transferase, MurA
(§3) Preparation of Enzyme Solution:
The enzyme solution is prepared by admixing the following: 50 mM Tris/HCl pH 8.0, […] 1 M Tris, 5 mM DTT, […] 1 M DTT, 20% Glycerol 4 ml 50% Glycerol, add water to 10 ml.
(§4) Preparation of Stop Solution:
A procedure similar to that described by C. […] Experiments are performed by adding a solution of test compound (in a mixture of dimethylsulfoxide and water) and an enzyme solution to a well. After a pre-incubation period of 10 mintues at 37° C., Tris/BME buffer and assay buffer are added. A start point optical density (OD0) reading is taken at 340 nm immediately following the addition of assay buffer. After incubation for 1 hr at 37° C., the stop solution is added and the color is allowed to develop for 30 minutes.

[2] = molecular target: E. coli Uridine-diphosphate-N-acetylmuramoyl-L-alanine: D-glutamate liease, MurD (Escherichia coli, UniProt P14900); experiment: biochemical; conditions: (E) E. coli enzyme
Chain of E. coli Uridine-diphosphate-N-acetylmuramoyl-L-alanine: D-glutamate liease, MurD (P14900 whole entry): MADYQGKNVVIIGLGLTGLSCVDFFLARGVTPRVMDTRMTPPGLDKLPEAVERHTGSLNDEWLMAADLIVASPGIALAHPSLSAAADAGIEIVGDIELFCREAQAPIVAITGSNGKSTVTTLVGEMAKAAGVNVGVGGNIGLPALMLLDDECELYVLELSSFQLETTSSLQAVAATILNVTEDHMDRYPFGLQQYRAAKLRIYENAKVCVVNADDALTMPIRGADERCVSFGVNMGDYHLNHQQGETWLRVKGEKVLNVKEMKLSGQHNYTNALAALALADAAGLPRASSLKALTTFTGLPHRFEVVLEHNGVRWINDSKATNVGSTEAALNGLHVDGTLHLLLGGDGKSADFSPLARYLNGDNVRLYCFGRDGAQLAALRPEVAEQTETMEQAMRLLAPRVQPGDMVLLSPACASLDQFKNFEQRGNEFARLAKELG
Description: S. aureus and E. coli Uridine-diphosphate-N-acetylmuramoyl-L-alanine: D-glutamate liease, MurD
The buffer is prepared from aqueous reagents with the following final concentrations: 83 mM Tris/HCl (pH 8.0), 50 mM MgCl2, and 2 mM ATP.
as §3
(§5) Preparation of Test Compound Solutions:
(§6) All test solutions are prepared in DMSO as 10 mg/mL, then diluted with 50 mM Tris/HCl (pH 8.5) to 100 μg/mL.
as §4
In this evaluation, the inhibitory activity of a test compound against MurD, the enzyme which catalyzes the fourth step of bacterial cell wall biosynthesis is determined.

enterococci = experiment: Minimum inhibitory concentration, microdilution broth method, enterococci; assay type: cell-based; conditions: Enterococcus faecalis, Mueller-Hinton broth, 18-22 hours at 35° C.
Description: as §1, §2

[3] = molecular target: E. coli Uridine-diphosphate-N-acetvimuramoyl: L-alanine lipase, MurC (Escherichia coli, UniProt P17952); experiment: Inhibitory activity against MurC (E. coli); assay type: biochemical
Chain of E. coli Uridine-diphosphate-N-acetvimuramoyl: L-alanine lipase, MurC (P17952 whole entry): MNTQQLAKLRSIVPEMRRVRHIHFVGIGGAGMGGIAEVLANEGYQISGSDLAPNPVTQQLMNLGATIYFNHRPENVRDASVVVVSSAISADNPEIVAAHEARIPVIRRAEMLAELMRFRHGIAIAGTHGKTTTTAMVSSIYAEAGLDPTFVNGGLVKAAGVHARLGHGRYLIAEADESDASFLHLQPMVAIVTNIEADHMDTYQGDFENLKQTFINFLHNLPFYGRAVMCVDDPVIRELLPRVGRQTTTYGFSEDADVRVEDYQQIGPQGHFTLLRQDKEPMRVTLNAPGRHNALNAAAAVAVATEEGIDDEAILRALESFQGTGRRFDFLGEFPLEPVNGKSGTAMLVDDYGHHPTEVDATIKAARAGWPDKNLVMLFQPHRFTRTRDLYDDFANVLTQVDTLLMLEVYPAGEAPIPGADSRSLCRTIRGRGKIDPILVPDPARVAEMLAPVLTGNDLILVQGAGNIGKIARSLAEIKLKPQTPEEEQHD
Description: S. aureus and E. coli Uridine-diphosphate-N-acetvimuramoyl: L-alanine lipase, MurC
The buffer is prepared from aqueous reagents with the following final concentrations: 83 mM Tris/HCl (pH 8.0), 50 mM MgC12, and 2 mM ATP.
as §3
A 1 mg/mL stock solution of MurC is prepared in a buffer consisting of 20 mM Tris/HCl (pH 8.5) with 2.5 μM BME. The stock solution is further diluted with the buffer to give a final enzyme concentration of 100 μg/mL for the E. coli stock solution and 70 μg/mL for the S. aureus stock solution.
as §5, §6, §4
The stop solution is prepared by stirring 1 part 4.2% ammonium molydbate in 4N HCl with 2 parts 0.045% malachite green for 30 min.
In this evaluation, the inhibitory activity of a test compound against MurC, the enzyme which catalyzes the third step of bacterial cell wall bioxynthesis is determined. Experiments are performed by adding 2.5 μl buffer, 2.5 μl 0.5M NH4SO2, 5 μl 2 μM L-Ala, 5 μl enzyme solution and 6.5 μl test compound solution to each well in a 96-well microplate. After a pre-incubation period of 10 mins. at 23° C., 3.75 μl of a 0.75 μM solution of UDP-MurNac is added to each well. Following an incubation period of 10 mins. at 37° C., 210 μl stop solution and 50 μl of a 34% w/v sodium citrate solution are added and color is allowed to develop for 10 mins. at 23° C. (Lanzetta et al., Analytical Biochemistry, 1979, 95) Optical density readings are taken at 660 nm using a Molecular Devices Spectra Max 250 with Soft Max software. Controls are performed using the same procedure and omitting the addition of UDP-MurNac.
Using these values the IC50 is determined by linear regression analysis.

[4] = molecular target: E. coli Enopyruvyl-UPD-N-acetylglucosamine reductase, Mur B (Escherichia coli, UniProt P08373); experiment: biochemical; conditions: (E) E. coli enzyme; for IC50: read-out: MurB IC50 (converted)
Chain of E. coli Enopyruvyl-UPD-N-acetylglucosamine reductase, Mur B (P08373 whole entry): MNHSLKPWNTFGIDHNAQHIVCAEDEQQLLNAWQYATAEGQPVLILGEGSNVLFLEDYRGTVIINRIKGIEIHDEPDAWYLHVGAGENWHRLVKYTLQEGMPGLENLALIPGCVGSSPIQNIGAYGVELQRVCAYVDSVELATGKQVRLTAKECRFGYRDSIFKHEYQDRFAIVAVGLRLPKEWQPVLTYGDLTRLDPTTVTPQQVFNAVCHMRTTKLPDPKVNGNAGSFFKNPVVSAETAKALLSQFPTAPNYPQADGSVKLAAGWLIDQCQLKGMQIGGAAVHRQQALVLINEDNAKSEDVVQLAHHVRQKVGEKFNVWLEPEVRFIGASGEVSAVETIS
Description: S. aureus and E. coli Enopyruvyl-UPD-N-acetylglucosamine reductase, Mur B
Preparation of Tris/BME buffer:
Dilute 17.5 uL of aqueous 5 mM BME (2-mercaptoethanol) to 50 mL with 50 mM Tris/HCl (pH 8.0).
as §3
Dilute aqueous MurB stock solution (0.94 mg/mL) with 200 parts 50 mM Tris/2-BME buffer.
Synthesis of Substrate for MurB (MurA Product EP-UDP-GluNAc):
A mixture of 13 mg UDP-N-acetylglucosamine and 5.5 mg phosphoenolpyruvate are dissolved in 10 mL Tris/BME buffer forming 2 mM concentrations of each reagent in solution.
Preparation of Assay Buffer:
The assay buffer is prepared in water from reagents with the following final concentrations: 100 mM Tris/HCl (pH 8.0), 200 μM NADPH, 100 μM MurB substrate, 10 μM 2-mercaptoethanol, and 10 μM KCl.
Experiments are performed by adding 20 μL of a solution of test compound in a mixture of dimethylsulfoxide and water and 30 μL of enzyme solution to a well. After a pre-incubation period of 20 mins. at 23° C., 50 μL of Tris/BME buffer and 100 μL of assay buffer are added. […] Controls are performed using the same procedure and employing 20 μL of a blank dimethylsulfonide and solvent mixture in place of the test compound solution.
Using these values, the IC50 for each test compound is determined by linear regression analysis.

[5] = S. aureus GC 1131, read-out: MIC S. aureus GC 1131
[6] = S. aureus GC 4543, read-out: MIC S. aureus GC 4543
[7] = E. faecalis GC 2242, read-out: MIC E. faecalis GC 2242
[8] = E. faecalis GC 4555, read-out: MIC E. faecalis GC 4555
[9] = (E) E. coli enzyme, read-out: MurC IC50 (converted)

SMILES | MIC (staphylococci; [5]) [µg/mL] | MIC (staphylococci; [6]) [µg/mL] | MIC (Streptococci) [µg/mL] | IC50 [1] [µM] | IC50 [2] [µM] | MIC (enterococci; [7]) [µg/mL] | MIC (enterococci; [8]) [µg/mL] | IC50 ([3]; MurC IC50, (E) E. coli enzyme) [µM] | IC50 [4] [µM] | IC50 [3, 9] [µM] | MurA IC50 [1] | MurD IC50 [2] | MurC IC50 ([3]; (E) E. coli enzyme) | MurB IC50 [4]
O=C1O/C(=C\c2ccccc2C(F)(F)F)C(O)=C1c1ccc(-c2ccccc2)cc1 [Example 99, 3-[1.1′-Biphenyl]-4-yl-4-hydroxy-5-{(Z)-[2-(trifluoromethyl)benzylidene]}-5H-furan-2-one] | 4 (≈ 9.79 µM) | 2 (≈ 4.9 µM) | 0.25 (≈ 0.612 µM) | 9.79 | > 61.2 | 4 (≈ 9.79 µM) | 16 (≈ 39.2 µM) | 9.79 | 14.7 | – | – | – | – | –
CC(C)(C)c1ccc(-c2ccc(C3=C(O)/C(=C/c4cccc(C(F)(F)F)c4)OC3=O)cc2)cc1 [Example 132] | 16 (≈ 34.4 µM) | 16 (≈ 34.4 µM) | 0.25 (≈ 0.538 µM) | 6.46 | 17.2 | 4 (≈ 8.61 µM) | 8 (≈ 17.2 µM) | – | 6.46 | 51.7 | – | – | – | –
CCOc1ccc(-c2ccc(C3=C(O)/C(=C/c4cccc(C(F)(F)F)c4Cl)OC3=O)cc2)cc1 [Example 117] | 64 (≈ 131 µM) | 32 (≈ 65.7 µM) | 0.5 (≈ 1.03 µM) | 20.5 | > 51.3 | 8 (≈ 16.4 µM) | 32 (≈ 65.7 µM) | – | 14.4 | > 51.3 | – | – | – | –
O=C1O/C(=C\c2cccc(C(F)(F)F)c2Cl)C(O)=C1c1ccc(-c2ccccc2)c(F)c1 [Example 114] | 1 (≈ 2.17 µM) | 1 (≈ 2.17 µM) | 0.25 (≈ 0.543 µM) | – | – | 0.5 (≈ 1.09 µM) | 2 (≈ 4.34 µM) | – | – | – | 1 (E) μg/mL | 16 (E) μg/mL | 10 (E) μg/mL | 1 (E) μg/mL
O=C1O/C(=C\c2cccc(C(F)(F)F)c2Cl)C(O)=C1c1ccc(-c2ccccc2)cc1 [Example 113] | 1 (≈ 2.26 µM) | 2 (≈ 4.52 µM) | 0.25 (≈ 0.565 µM) | 9.03 | > 56.5 | 1 (≈ 2.26 µM) | 4 (≈ 9.03 µM) | – | 6.77 | > 56.5 | – | – | – | –
CCCc1ccc(-c2ccc(C3=C(O)/C(=C/c4cc(C(F)(F)F)ccc4Cl)OC3=O)cc2)cc1 [Example 127] | 4 (≈ 8.25 µM) | 2 (≈ 4.12 µM) | 0.25 (≈ 0.516 µM) | 8.25 | > 51.6 | 2 (≈ 4.12 µM) | 4 (≈ 8.25 µM) | – | 12.4 | > 51.6 | – | – | – | –
CCOc1ccc(-c2ccc(C3=C(O)/C(=C/c4ccc(Cl)c(C(F)(F)F)c4)OC3=O)cc2)cc1 [Example 124] | 32 (≈ 65.7 µM) | 32 (≈ 65.7 µM) | 1 (≈ 2.05 µM) | 28.8 | > 51.3 | 16 (≈ 32.9 µM) | 32 (≈ 65.7 µM) | – | 24.6 | > 51.3 | – | – | – | –
CCCc1ccc(-c2ccc(C3=C(O)/C(=C/c4cccc(C(F)(F)F)c4Cl)OC3=O)cc2)cc1 [Example 115] | 4 (≈ 8.25 µM) | 4 (≈ 8.25 µM) | 0.25 (≈ 0.516 µM) | 10.3 | > 51.6 | 0.25 (≈ 0.516 µM) | 2 (≈ 4.12 µM) | – | 10.3 | > 51.6 | – | – | – | –
CC(C)(C)c1ccc(-c2ccc(C3=C(O)/C(=C/c4ccc(Cl)c(C(F)(F)F)c4)OC3=O)cc2)cc1 [Example 123] | 16 (≈ 32.1 µM) | 16 (≈ 32.1 µM) | 0.5 (≈ 1 µM) | 42.1 | > 50.1 | 4 (≈ 8.02 µM) | 8 (≈ 16 µM) | – | 6.01 | > 50.1 | – | – | – | –
CCCc1ccc(-c2ccc(C3=C(O)/C(=C/c4cccc(C(F)(F)F)c4)OC3=O)cc2)cc1 [Example 131] | 32 (≈ 71 µM) | 16 (≈ 35.5 µM) | 0.25 (≈ 0.555 µM) | 8.88 | 20 | 4 (≈ 8.88 µM) | 8 (≈ 17.8 µM) | – | 4.44 | 40 | – | – | – | –
CC(C)(C)c1ccc(-c2ccc(C3=C(O)/C(=C/c4cc(C(F)(F)F)ccc4Cl)OC3=O)cc2)cc1 [Example 128] | 8 (≈ 16 µM) | 4 (≈ 8.02 µM) | 0.25 (≈ 0.501 µM) | 8.02 | > 50.1 | 2 (≈ 4.01 µM) | 8 (≈ 16 µM) | – | 10 | 48.1 | – | – | – | –

Reference: US7495027B2, “3-aryl-4-hydroxyfuranone compounds and the human and animal health use thereof” (Wyeth, priority 2003, dated 2009)
